Reference: US4966907A, “6-substituted 5-hydroxy-2,3-dihydrobenzofurans as inhibitors of leukotriene biosynthesis” (Merck & Co., Inc., priority 1988, dated 1990)
pIC50: −log10 of the molar value.

Test system: LTB4 production in isolated human polymorphonuclear leucocytes (PMN)
Experiment: inhibition of LTB4 production in isolated human polymorphonuclear leukocytes (PMN), A23187-stimulated, radioimmunoassay
Type: cell-based
Settings: Homo sapiens, Leucocyte, 5 min; calcium ionophore A23187 10 μM, 5 min at 37° C., 2.5×10^5 cells; read-out: Human Polymorphonuclear Leucocyte Activity IC50
Description: A. Preparation of Human PMN
Human blood is obtained by antecubital venepuncture from consenting volunteers who denied having taken medication within the previous 7 days. The blood is immediately added to 10% (v/v) trisodium citrate (0.13M) or 5% (v/v) sodium heparin (1000 IU/mL). PMNs are isolated from anticoagulated blood by dextran sedimentation and centrifugation through Ficoll Hypaque (specific gravity 1.077), essentially as described by Boyum. (Boyum, A., Scand. J. Clin. Lab. Invest 1968, 21 (Supp 97), 77). Contaminating erythrocytes are removed by lysis following exposure to ammonium chloride (0.16M) in Tris buffer (pH 7.65), and the PMNs resuspended at 5×10^5 cells/mL in HEPES (15 mM) buffered Hanks balanced salt solution containing Ca^2+ (1.4 mM) and Mg^2+ (0.7 mM), pH 7.4. Viability is assessed by Trypan blue exclusion and is typically greater than 98%.
B. Generation and Radiommumoassay of LTB4
PMNs 0.5 mL; 2.5×10^5 cells) are placed in plastic tubes and incubated (37° C., 2 min) with test compounds at the desired concentration or vehicle control (DMSO, final concentration 0.2%). The synthesis of leukotriene B4 (LTB4) is initiated by the addition of calcium ionophore A23187 (final concentration 10 μM) or vehicle on control samples and allowed to proceed for 5 minutes at 37° C. The reactions are then terminated by the addition of cold methanol (0.25 mL) and samples of the entire PMN reaction mixture are removed for radiommunoassay of LTB4.
Samples (50 μl) of authentic LTB4 of known concentration in radiommunoassay buffer (RIA) buffer (potassium phosphate 1 mM; disodium EDTA 0.1 mM; Thimerosal 0.025 mM; gelatin 0.1%, pH 7.3) or PMN reaction mixture diluted 1:1 with RIA buffer are added to reaction tubes.
Thereafter [3H]LTB4 (10 nCu in 100 μl RIA buffer) and LTB4 antiserum (100 μL of a 1:3000 dilution in RIA buffer) are added and the tubes vortexed. Reactants are allowed to equilibrate by incubation overnight at 4° C. To separate antibody bound from free LTB4, aliquots (50 μL) of activated charcoal (3% activated charcoal in RIA buffer containing 0.25% Dextran T-70) were added, the tubes vortexed, and allowed to stand at room temperature for 10 minutes prior to centrifugation (1500×g; 10 min; 4° C.). The supernatents containing antibody-bound LTB4 are decanted into vials and Aquasol 2 (4 mL) is added. Radioactivity is quantified by liquid scintillation spectrometry. […] The specificity of the antiserium and the sensitivity of the procedure have been described in detail elsewhere. (Rokach, J.; Hayes, E. C.; Girard, Y.; Lombardo. D. L.; Maycock, A. L.; Rosenthal, A. S.; Young, R. N.; Zamboni, R.; Zweerink, H. J. Prostaglandins Leukotrienes and Medicine 1984, 13, 21). The amount of LTB4 produced in test and control (approx. 20 ng/10^6 cells) samples are then calculated. Inhibitory dose response curves are constructed using a four-parameter algorithm and from these the IC50 values are determined.

Q: With `Oc1cc2c(cc1CCCOc1ccccc1)OCC2` [H (CH2)3 OC6 H5, 2,3-dihydro-6-(3-phenoxypropyl)-5-benzofuranol] as the molecule, how does the pIC50 read?
A: 7.24

Q: With `OCCc1ccc(OCCCc2cc3c(cc2O)CCO3)cc1` [H (CH2)3 OC6 H4-4-(CH2)2 OH, 2,3-dihydro-6-(3-(4-(2-hydroxyethyl)phenoxy)propyl)-5-benzofuranol] as the molecule, how does the pIC50 read?
A: 7.39

Q: With `COC(=O)Cc1ccc(OCCCOc2cc3c(cc2O)CCO3)cc1` [H O(CH2)3 OC6 H5-4-CH2 CO2 CH3, 4-(3-((2,3-dihydro-5-hydroxy-6-benzofuranyl)oxy)propoxy)benzeneacetic acid methyl ester] as the molecule, how does the pIC50 read?
A: 7.14

Q: With `Oc1cc2c(cc1CCCOc1ccc(F)cc1)OCC2` [H (CH2)3 OC6 H4-4-F, 2,3-dihydro-6-(3-(4-fluorophenoxy)propyl)5-benzofuranol] as the molecule, how does the pIC50 read?
A: 7.55

Q: With `COC(=O)c1ccccc1OCCCOc1cc2c(cc1O)CCO2` [H O(CH2)3 OC6 H5-2-CO2 CH3, 2-(3-((2,3-dihydro-5-hydroxy-6-benzofuranyl)oxy)propoxy)benzoic acid methyl ester] as the molecule, how does the pIC50 read?
A: 7.19

Q: With `Oc1cc2c(cc1CCCSc1ccccc1)OCC2` [H (CH2)3 SC6 H5, 2,3-dihydro-6-(3-(phenylthio)propyl)-5-benzofuranol] as the molecule, how does the pIC50 read?
A: 7.72

Q: With `COC(=O)c1cccc(OCCCOc2cc3c(cc2O)CCO3)c1` [H O(CH2)3 OC6 H5-3-CO2 CH3, 3-(3-((2,3-dihydro-5-hydroxy-6-benzofuranyl)oxy)propoxy)benzoic acid methyl ester] as the molecule, how does the pIC50 read?
A: 7.25

Q: With `OCCc1cccc(OCCCc2cc3c(cc2O)CCO3)c1` [H (CH2)3 OC6 H4-3-(CH2)2 OH, 2,3-Dihydro-6-(3-(3-(2-hydroxyethyl)-phenoxy)propyl)-5-benzofuranol] as the molecule, how does the pIC50 read?
A: 7.11

Q: With `Cc1c(O)c(CCCSc2ccccc2)cc2c1CCO2` [CH3 (CH2)3 SC6 H5, 2,3-dihydro-4-methyl-6-(3-(phenylthio)propyl)5-benzofuranol] as the molecule, how does the pIC50 read?
A: 7.72

Q: With `Oc1cc2c(cc1SCCc1ccccc1)OCC2` [H S(CH2)2 C6 H5, 2,3-dihydro 6 (2 phenylethyl)thio-5-benzofuranol] as the molecule, how does the pIC50 read?
A: 7.18

Q: With `COC(=O)c1ccc(OCCCOc2cc3c(cc2O)CCO3)cc1` [H O(CH2)3 OC6 H5-4-CO2 CH3, 4-(3-((2,3-dihydro-5-hydroxy-6-benzofuranyl)oxy)propoxy)benzoic acid methyl ester] as the molecule, how does the pIC50 read?
A: 7.15

Q: With `CCCc1ccc(OCCCc2cc3c(cc2O)CCO3)cc1` [H (CH2)3 OC6 H4-4-(CH2)2 CH3, 2,3-dihydro 6-(3-(4-propylphenoxy)propyl)-5-benzofuranol] as the molecule, how does the pIC50 read?
A: 8.05

Q: With `Oc1cc2c(cc1CCCOc1ccc(Cl)cc1)OCC2` [H (CH2)3 OC6 H4-4-Cl, 2,3-Dihydro-6-(3-(4-chlorophenoxy)propyl)-5-benzofuranol] as the molecule, how does the pIC50 read?
A: 7.26

Q: With `Oc1cc2c(cc1OCCCc1ccccc1)OCC2` [H O(CH2)3 C6 H5, 2,3-dihydro-6-(3-phenylpropoxy)-5-benzofuranol] as the molecule, how does the pIC50 read?
A: 7.29

Q: With `CCCc1cc2c(c(Br)c1O)CCO2` [Br CH2 CH3 CH3, 2,3-dihydro4-bromo-6-propyl-5-benzofuranol] as the molecule, how does the pIC50 read?
A: 7.31

Q: With `Oc1cc2c(cc1SCCCc1ccccc1)OCC2` [H S(CH2)3 C6 H5, 2,3-dihydro-6-(3-phenylpropyl)thio-5-benzofuranol] as the molecule, how does the pIC50 read?
A: 7.55

Same assay, conditions: Leucocyte, 5 min; standard compounds; human PMN, A23187 10 μM, 5 min at 37° C.; read-out: IC50 values for LTB4 inhibition

Q: With `CC(Cc1ccc(O)c(O)c1)C(C)Cc1ccc(O)c(O)c1` (centres unmarked) [nordihydroguaiacetic acid, reference compound] as the molecule, how does the pIC50 read?
A: 7.07

Q: With `O=C1CCN(c2ccccc2)N1` [phenidone, reference compound] as the molecule, how does the pIC50 read?
A: 5.03

Test system: leukotriene biosynthesis in human polymorphonuclear leukocytes
Experiment: not given
Settings: known inhibitors of leukotriene biosynthesis; cited from earlier work

Q: For `CC(Cc1ccc(O)c(O)c1)C(C)Cc1ccc(O)c(O)c1` (centres unmarked) [nordihydroguaiacetic acid, reference compound], which “activity in the human polymorphonuclear leukocytes assay” value is on record?
A: active

Q: With `O=C1CCN(c2ccccc2)N1` [phenidone, reference compound] as the molecule, how does the “activity in the human polymorphonuclear leukocytes assay” value read?
A: active
